Results taken from US10835533B2, “1 -((3S,4R)-4-(3-fluorophenyl)-1-(2-methoxyethyl)pyrrolidin-3-yl)-3-(4-methyl-3-(2-methylpyrimidin-5-yl)-1-phenyl-1H-pyrazol-5-yl)urea as a TrkA kinase inhibitor” (Array BioPharma Inc., priority 2014, dated 2020).

What was measured:
Assay in all cases: KinaseProfiler kinase profiling
Assay type in all cases: biochemical
Conditions in all cases: 10 μM, ATP near Km
ALK4 = biological target: T1, ALK4 (Homo sapiens, UniProt P36896)
T1 construct: purchased Millipore, Inc. (KinaseProfiler service)
Experimental: (§1) Compound 1 was tested for off-target kinase activity at a concentration of 10 μM by Millipore, Inc. in their KinaseProfiler™ service against all the kinases available in their full kinase panel. Compound 1 was run in duplicate at a concentration of ATP near the Km for each individual kinase according to Millipore's specifications. Data are reported as percent of control (POC) and are the average of the two replicates.

CAMK2b = biological target: T2, CAMK2b (Homo sapiens, UniProt Q13554)
T2 construct: purchased Millipore, Inc. (KinaseProfiler service)
T2 sequence (Q13554 whole entry): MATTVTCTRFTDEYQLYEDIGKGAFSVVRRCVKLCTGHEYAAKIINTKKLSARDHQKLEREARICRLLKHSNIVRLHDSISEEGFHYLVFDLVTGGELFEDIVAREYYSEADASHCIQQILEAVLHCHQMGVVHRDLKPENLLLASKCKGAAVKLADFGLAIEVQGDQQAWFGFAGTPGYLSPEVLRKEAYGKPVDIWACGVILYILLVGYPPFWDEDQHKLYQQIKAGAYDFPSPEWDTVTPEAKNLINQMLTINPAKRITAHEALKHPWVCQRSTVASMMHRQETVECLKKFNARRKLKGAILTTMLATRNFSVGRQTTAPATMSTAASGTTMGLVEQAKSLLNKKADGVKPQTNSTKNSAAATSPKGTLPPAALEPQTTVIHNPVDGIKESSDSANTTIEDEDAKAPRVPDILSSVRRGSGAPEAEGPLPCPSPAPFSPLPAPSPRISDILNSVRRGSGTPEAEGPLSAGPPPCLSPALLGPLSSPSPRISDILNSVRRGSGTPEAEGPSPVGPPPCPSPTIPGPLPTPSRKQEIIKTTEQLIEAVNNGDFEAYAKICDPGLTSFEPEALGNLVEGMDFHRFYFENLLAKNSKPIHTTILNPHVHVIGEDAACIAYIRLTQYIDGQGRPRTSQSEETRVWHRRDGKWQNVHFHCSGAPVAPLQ
Experimental: as §1

CDK2/cyclinA = biological target: T3, CDK2/cyclinA (Homo sapiens, UniProt P24941)
T3 construct: purchased Millipore, Inc. (KinaseProfiler service)
Experimental: as §1

CDK3/cyclinE = biological target: T4, CDK3/cyclinE (Homo sapiens, UniProt Q00526)
T4 construct: purchased Millipore, Inc. (KinaseProfiler service)
Experimental: as §1

CK1gamma3 = biological target: T5, CK1gamma3 (Homo sapiens, UniProt Q9Y6M4)
T5 construct: purchased Millipore, Inc. (KinaseProfiler service)
Experimental: as §1

DAPK1 = biological target: T6, DAPK1 (Homo sapiens, UniProt P53355)
T6 construct: purchased Millipore, Inc. (KinaseProfiler service)
Experimental: as §1

DYRK2 = biological target: T7, DYRK2 (Homo sapiens, UniProt Q92630)
T7 construct: purchased Millipore, Inc. (KinaseProfiler service)
Experimental: as §1

EphA1 = biological target: T8, EphA1 (Homo sapiens, UniProt P21709)
T8 construct: purchased Millipore, Inc. (KinaseProfiler service)
Experimental: as §1

EphA2 = biological target: T9, EphA2 (Homo sapiens, UniProt P29317)
T9 construct: purchased Millipore, Inc. (KinaseProfiler service)
Experimental: as §1

EphB3 = biological target: T10, EphB3 (Homo sapiens, UniProt P54753)
T10 construct: purchased Millipore, Inc. (KinaseProfiler service)
Experimental: as §1

Fgr = biological target: T11, Fgr (Homo sapiens, UniProt P09769)
T11 construct: purchased Millipore, Inc. (KinaseProfiler service)
Experimental: as §1

GSK3alpha = biological target: T12, GSK3alpha (Homo sapiens, UniProt P49840)
T12 construct: purchased Millipore, Inc. (KinaseProfiler service)
Experimental: as §1

Hck = biological target: T13, Hck (Homo sapiens, UniProt P08631)
T13 construct: purchased Millipore, Inc. (KinaseProfiler service)
Experimental: as §1

IRAK4 = biological target: T14, IRAK4 (Homo sapiens, UniProt Q9NWZ3)
T14 construct: purchased Millipore, Inc. (KinaseProfiler service)
Experimental: as §1

JNK1alpha1 = biological target: T15, JNK1alpha1 (Homo sapiens, UniProt P45983)
T15 construct: purchased Millipore, Inc. (KinaseProfiler service)
T15 sequence (P45983 1-384 isoform P45983-2): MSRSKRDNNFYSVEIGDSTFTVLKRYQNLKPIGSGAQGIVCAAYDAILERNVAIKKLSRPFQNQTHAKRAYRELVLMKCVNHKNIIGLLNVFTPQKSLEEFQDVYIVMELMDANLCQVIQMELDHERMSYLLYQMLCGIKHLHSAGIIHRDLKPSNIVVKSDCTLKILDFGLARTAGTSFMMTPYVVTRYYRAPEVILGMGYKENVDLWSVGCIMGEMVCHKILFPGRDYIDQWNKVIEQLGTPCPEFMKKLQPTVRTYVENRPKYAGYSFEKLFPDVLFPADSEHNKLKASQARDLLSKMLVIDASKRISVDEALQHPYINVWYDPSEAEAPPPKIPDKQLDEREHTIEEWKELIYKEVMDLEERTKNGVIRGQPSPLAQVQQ
Experimental: as §1

KIT = biological target: T16, KIT (Homo sapiens, UniProt P10721)
T16 construct: purchased Millipore, Inc. (KinaseProfiler service)
T16 sequence (P10721 26-976): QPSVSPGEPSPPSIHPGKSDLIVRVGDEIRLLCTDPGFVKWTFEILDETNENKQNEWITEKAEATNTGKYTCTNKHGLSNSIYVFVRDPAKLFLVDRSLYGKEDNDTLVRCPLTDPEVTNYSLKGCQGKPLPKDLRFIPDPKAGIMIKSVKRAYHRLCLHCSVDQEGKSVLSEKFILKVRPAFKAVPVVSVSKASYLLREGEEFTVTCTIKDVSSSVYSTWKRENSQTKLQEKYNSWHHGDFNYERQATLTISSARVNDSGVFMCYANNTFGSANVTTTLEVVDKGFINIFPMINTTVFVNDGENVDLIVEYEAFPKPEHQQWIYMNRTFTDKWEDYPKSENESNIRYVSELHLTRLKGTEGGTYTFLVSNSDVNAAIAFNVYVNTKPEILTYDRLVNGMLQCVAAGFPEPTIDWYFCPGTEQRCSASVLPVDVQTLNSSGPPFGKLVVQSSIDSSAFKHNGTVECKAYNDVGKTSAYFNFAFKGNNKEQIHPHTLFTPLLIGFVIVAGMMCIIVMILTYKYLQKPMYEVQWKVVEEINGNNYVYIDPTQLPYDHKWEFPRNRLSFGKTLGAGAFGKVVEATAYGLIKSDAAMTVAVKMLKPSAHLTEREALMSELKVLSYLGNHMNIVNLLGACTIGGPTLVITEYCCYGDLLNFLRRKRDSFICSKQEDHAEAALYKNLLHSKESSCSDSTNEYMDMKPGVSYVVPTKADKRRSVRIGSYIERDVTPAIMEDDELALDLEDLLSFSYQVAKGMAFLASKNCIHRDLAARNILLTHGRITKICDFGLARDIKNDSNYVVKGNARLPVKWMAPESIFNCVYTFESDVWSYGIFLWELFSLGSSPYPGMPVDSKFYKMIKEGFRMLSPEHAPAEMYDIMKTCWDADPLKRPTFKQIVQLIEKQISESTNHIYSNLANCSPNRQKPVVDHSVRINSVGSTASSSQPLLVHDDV
Experimental: as §1

LIMK1 = biological target: T17, LIMK1 (Homo sapiens, UniProt P53667)
T17 construct: purchased Millipore, Inc. (KinaseProfiler service)
Experimental: as §1

MARK1 = biological target: T18, MARK1 (Homo sapiens, UniProt Q9P0L2)
T18 construct: purchased Millipore, Inc. (KinaseProfiler service)
Experimental: as §1

MELK = biological target: T19, MELK (Homo sapiens, UniProt Q14680)
T19 construct: purchased Millipore, Inc. (KinaseProfiler service)
Experimental: as §1

MRCKbeta = biological target: T20, MRCKbeta (Homo sapiens, UniProt Q9Y5S2)
T20 construct: purchased Millipore, Inc. (KinaseProfiler service)
T20 sequence (Q9Y5S2 whole entry): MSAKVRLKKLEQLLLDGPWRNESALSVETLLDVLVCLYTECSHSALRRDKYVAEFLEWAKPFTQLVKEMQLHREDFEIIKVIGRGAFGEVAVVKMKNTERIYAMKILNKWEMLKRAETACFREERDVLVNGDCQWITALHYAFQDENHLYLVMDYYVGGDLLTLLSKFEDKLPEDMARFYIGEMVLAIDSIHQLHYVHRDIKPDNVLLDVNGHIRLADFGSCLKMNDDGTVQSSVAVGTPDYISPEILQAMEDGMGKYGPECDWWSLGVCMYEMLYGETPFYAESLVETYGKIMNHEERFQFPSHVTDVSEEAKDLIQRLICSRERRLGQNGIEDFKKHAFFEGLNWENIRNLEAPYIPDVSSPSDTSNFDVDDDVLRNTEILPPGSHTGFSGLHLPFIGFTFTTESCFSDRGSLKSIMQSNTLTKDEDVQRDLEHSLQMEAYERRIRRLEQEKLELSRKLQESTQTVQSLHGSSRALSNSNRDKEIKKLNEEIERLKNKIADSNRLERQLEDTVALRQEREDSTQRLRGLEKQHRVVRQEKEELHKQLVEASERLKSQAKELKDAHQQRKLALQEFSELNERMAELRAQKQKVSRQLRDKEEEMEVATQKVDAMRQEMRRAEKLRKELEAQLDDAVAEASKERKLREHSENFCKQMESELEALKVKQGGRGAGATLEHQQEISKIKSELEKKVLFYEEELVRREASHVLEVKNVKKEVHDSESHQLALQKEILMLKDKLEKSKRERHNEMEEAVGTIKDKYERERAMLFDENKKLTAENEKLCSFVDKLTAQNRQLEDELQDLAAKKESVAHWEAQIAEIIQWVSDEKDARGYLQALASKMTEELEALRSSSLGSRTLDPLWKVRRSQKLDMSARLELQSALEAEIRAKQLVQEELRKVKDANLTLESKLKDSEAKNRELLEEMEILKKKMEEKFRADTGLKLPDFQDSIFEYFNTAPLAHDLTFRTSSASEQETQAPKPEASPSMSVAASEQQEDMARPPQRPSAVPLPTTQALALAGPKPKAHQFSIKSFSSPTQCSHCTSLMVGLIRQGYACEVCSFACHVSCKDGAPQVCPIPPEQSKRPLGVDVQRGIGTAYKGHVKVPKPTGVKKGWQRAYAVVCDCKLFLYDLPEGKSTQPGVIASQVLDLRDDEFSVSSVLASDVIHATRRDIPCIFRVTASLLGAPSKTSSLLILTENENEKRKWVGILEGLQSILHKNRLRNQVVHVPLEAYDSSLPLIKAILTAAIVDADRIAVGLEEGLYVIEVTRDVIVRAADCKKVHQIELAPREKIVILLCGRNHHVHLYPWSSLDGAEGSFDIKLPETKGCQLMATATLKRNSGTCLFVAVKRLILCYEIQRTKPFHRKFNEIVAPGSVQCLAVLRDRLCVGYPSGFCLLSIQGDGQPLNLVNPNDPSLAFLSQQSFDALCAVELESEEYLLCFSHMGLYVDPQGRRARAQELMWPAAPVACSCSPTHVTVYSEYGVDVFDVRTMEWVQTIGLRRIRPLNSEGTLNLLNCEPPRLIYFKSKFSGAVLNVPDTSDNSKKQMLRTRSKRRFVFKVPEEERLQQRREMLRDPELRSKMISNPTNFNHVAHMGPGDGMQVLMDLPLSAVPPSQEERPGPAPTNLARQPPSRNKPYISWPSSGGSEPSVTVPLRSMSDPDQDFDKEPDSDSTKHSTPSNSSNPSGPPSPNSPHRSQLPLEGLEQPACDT
Experimental: as §1

MST3 = biological target: T21, MST3 (Homo sapiens, UniProt Q9Y6E0)
T21 construct: purchased Millipore, Inc. (KinaseProfiler service)
Experimental: as §1

NEK2 = biological target: T22, NEK2 (Homo sapiens, UniProt P51955)
T22 construct: purchased Millipore, Inc. (KinaseProfiler service)
Experimental: as §1

NEK6 = biological target: T23, NEK6 (Homo sapiens, UniProt Q9HC98)
T23 construct: purchased Millipore, Inc. (KinaseProfiler service)
Experimental: as §1

PASK = biological target: T24, PASK (Homo sapiens, UniProt Q96RG2)
T24 construct: purchased Millipore, Inc. (KinaseProfiler service)
Experimental: as §1

PKAC-alpha = biological target: T25, PKAC-alpha (Homo sapiens, UniProt P17612)
T25 construct: purchased Millipore, Inc. (KinaseProfiler service)
Experimental: as §1

PKCalpha = biological target: T26, PKCalpha (Homo sapiens, UniProt P17252)
T26 construct: purchased Millipore, Inc. (KinaseProfiler service)
Experimental: as §1

PKCbetaI = biological target: T27, PKCbetaI (Homo sapiens, UniProt P05771)
T27 construct: purchased Millipore, Inc. (KinaseProfiler service)
Experimental: as §1

PKCbetaII = biological target: T28, PKCbetaII (Homo sapiens, UniProt P05771)
T28 construct: purchased Millipore, Inc. (KinaseProfiler service)
Experimental: as §1

PRK2 = biological target: T29, PRK2 (Homo sapiens, UniProt Q16513)
T29 construct: purchased Millipore, Inc. (KinaseProfiler service)
Experimental: as §1

PRKG1alpha = biological target: T30, PRKG1alpha (Homo sapiens, UniProt Q13976)
T30 construct: purchased Millipore, Inc. (KinaseProfiler service)
Experimental: as §1

PTK6 = biological target: T31, PTK6 (Homo sapiens, UniProt Q13882)
T31 construct: purchased Millipore, Inc. (KinaseProfiler service)
T31 sequence (Q13882 whole entry): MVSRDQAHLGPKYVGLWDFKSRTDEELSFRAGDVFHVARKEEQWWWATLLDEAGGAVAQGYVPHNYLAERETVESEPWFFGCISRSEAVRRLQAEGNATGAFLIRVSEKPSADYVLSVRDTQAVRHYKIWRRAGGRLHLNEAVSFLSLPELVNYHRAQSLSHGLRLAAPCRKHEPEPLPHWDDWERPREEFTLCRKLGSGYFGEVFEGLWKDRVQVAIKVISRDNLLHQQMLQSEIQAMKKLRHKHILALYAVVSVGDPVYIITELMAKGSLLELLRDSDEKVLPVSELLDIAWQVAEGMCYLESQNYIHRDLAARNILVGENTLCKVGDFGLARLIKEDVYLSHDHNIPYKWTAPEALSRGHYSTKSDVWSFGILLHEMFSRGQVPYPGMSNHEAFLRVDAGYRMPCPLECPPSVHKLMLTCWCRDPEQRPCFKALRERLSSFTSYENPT
Experimental: as §1

Plk1 = biological target: T32, Plk1 (Homo sapiens, UniProt P53350)
T32 construct: purchased Millipore, Inc. (KinaseProfiler service)
Experimental: as §1

ROCK-II = biological target: T33, ROCK-II (Homo sapiens, UniProt O75116)
T33 construct: purchased Millipore, Inc. (KinaseProfiler service)
Experimental: as §1

Ret = biological target: T34, Ret (Homo sapiens, UniProt P07949)
T34 construct: purchased Millipore, Inc. (KinaseProfiler service)
Experimental: as §1

SGK2 = biological target: T35, SGK2 (Homo sapiens, UniProt Q9HBY8)
T35 construct: purchased Millipore, Inc. (KinaseProfiler service)
Experimental: as §1

TAO3 = biological target: T36, TAO3 (Homo sapiens, UniProt Q9H2K8)
T36 construct: purchased Millipore, Inc. (KinaseProfiler service)
Experimental: as §1

TrkB = biological target: T37, TrkB (Homo sapiens, UniProt Q16620)
T37 construct: purchased Millipore, Inc. (KinaseProfiler service)
T37 sequence (Q16620 32-822): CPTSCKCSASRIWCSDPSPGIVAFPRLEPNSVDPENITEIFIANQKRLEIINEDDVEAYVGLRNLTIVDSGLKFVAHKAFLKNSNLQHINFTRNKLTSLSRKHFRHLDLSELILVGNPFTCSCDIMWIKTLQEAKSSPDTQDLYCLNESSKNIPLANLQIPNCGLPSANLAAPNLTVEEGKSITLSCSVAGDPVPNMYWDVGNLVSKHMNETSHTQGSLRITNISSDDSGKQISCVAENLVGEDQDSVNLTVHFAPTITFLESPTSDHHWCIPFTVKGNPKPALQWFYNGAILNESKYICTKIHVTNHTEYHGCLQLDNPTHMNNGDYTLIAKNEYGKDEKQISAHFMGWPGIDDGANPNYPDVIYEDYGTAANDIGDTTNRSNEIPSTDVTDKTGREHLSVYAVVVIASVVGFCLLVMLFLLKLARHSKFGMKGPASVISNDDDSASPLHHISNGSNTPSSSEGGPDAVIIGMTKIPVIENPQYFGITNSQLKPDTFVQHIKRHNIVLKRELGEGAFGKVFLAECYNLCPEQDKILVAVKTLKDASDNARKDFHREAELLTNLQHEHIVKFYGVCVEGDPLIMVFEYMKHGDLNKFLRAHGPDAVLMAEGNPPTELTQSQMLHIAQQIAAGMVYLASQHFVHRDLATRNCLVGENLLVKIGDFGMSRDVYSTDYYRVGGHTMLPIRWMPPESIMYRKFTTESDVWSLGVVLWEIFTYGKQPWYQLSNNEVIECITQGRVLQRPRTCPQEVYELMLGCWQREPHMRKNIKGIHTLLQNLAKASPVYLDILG
Experimental: as §1

WNK2 = biological target: T38, WNK2 (Homo sapiens, UniProt Q9Y3S1)
T38 construct: purchased Millipore, Inc. (KinaseProfiler service)
Experimental: as §1

ZAP-70 = biological target: T39, ZAP-70 (Homo sapiens, UniProt P43403)
T39 construct: purchased Millipore, Inc. (KinaseProfiler service)
Experimental: as §1

c-RAF = biological target: T40, c-RAF (Homo sapiens, UniProt P04049)
T40 construct: purchased Millipore, Inc. (KinaseProfiler service)
Experimental: as §1

p38beta = biological target: T41, p38beta (Homo sapiens, UniProt Q15759)
T41 construct: purchased Millipore, Inc. (KinaseProfiler service)
Experimental: as §1

**Q.** For `COCCN1C[C@@H](NC(=O)Nc2c(C)c(-c3cnc(C)nc3)nn2-c2ccccc2)[C@H](c2cccc(F)c2)C1` [Compound 1, 1-((3S,4R)-4-(3-fluorophenyl)-1-(2-methoxyethyl)pyrrolidin-3-yl)-3-(4-methyl-3-(2-methylpyrimidin-5-yl)-1-phenyl-1H-pyrazol-5-yl)urea], which “Avg POC” value (ALK4) is on record?
**A.** The value was 106.5 POC.

**Q.** What about the “Avg POC” value (CAMK2b) of the same compound?
**A.** The value was 147.5 POC.

**Q.** And the “Avg POC” value (CDK2/cyclinA)?
**A.** Its value is 94.5 POC.

**Q.** And the “Avg POC” value (CDK3/cyclinE)?
**A.** Its value is 94.5 POC.

**Q.** What about the “Avg POC” value (CK1gamma3) of the same compound?
**A.** Its value is 104.5 POC.

**Q.** And the “Avg POC” value (DAPK1)?
**A.** Its value is 114 POC.

**Q.** What about the “Avg POC” value (DYRK2) of the same compound?
**A.** The value was 102 POC.

**Q.** What about the “Avg POC” value (EphA1) of the same compound?
**A.** The value was 94.5 POC.

**Q.** What about the “Avg POC” value (EphA2) of the same compound?
**A.** Its value is 92.5 POC.

**Q.** And the “Avg POC” value (EphB3)?
**A.** The value was 89.5 POC.

**Q.** What about the “Avg POC” value (Fgr) of the same compound?
**A.** The value was 106 POC.

**Q.** What about the “Avg POC” value (GSK3alpha) of the same compound?
**A.** Its value is 109.5 POC.

**Q.** And the “Avg POC” value (Hck)?
**A.** The value was 108.5 POC.

**Q.** What about the “Avg POC” value (IRAK4) of the same compound?
**A.** The value was 98 POC.

**Q.** And the “Avg POC” value (JNK1alpha1)?
**A.** The value was 95 POC.

**Q.** And the “Avg POC” value (KIT)?
**A.** Its value is 97.5 POC.

**Q.** And the “Avg POC” value (LIMK1)?
**A.** The value was 98 POC.

**Q.** And the “Avg POC” value (MARK1)?
**A.** The value was 100 POC.

**Q.** What about the “Avg POC” value (MELK) of the same compound?
**A.** Its value is 105.5 POC.

**Q.** What about the “Avg POC” value (MRCKbeta) of the same compound?
**A.** The value was 106.5 POC.

**Q.** What about the “Avg POC” value (MST3) of the same compound?
**A.** Its value is 103.5 POC.

**Q.** What about the “Avg POC” value (NEK2) of the same compound?
**A.** Its value is 95 POC.

**Q.** What about the “Avg POC” value (NEK6) of the same compound?
**A.** The value was 96 POC.

**Q.** And the “Avg POC” value (PASK)?
**A.** Its value is 137.5 POC.

**Q.** What about the “Avg POC” value (PKAC-alpha) of the same compound?
**A.** The value was 129.5 POC.

**Q.** What about the “Avg POC” value (PKCalpha) of the same compound?
**A.** The value was 98.5 POC.

**Q.** And the “Avg POC” value (PKCbetaI)?
**A.** Its value is 102.5 POC.

**Q.** And the “Avg POC” value (PKCbetaII)?
**A.** The value was 99.5 POC.

**Q.** And the “Avg POC” value (PRK2)?
**A.** The value was 116 POC.

**Q.** What about the “Avg POC” value (PRKG1alpha) of the same compound?
**A.** Its value is 109.5 POC.

**Q.** What about the “Avg POC” value (PTK6) of the same compound?
**A.** Its value is 106 POC.

**Q.** What about the “Avg POC” value (Plk1) of the same compound?
**A.** The value was 99.5 POC.

**Q.** And the “Avg POC” value (ROCK-II)?
**A.** Its value is 105.5 POC.

**Q.** And the “Avg POC” value (Ret)?
**A.** The value was 111.5 POC.

**Q.** What about the “Avg POC” value (SGK2) of the same compound?
**A.** The value was 112 POC.

**Q.** What about the “Avg POC” value (TAO3) of the same compound?
**A.** The value was 103 POC.

**Q.** And the “Avg POC” value (TrkB)?
**A.** The value was 1.5 POC.

**Q.** And the “Avg POC” value (WNK2)?
**A.** Its value is 92.5 POC.

**Q.** And the “Avg POC” value (ZAP-70)?
**A.** The value was 104.5 POC.

**Q.** What about the “Avg POC” value (c-RAF) of the same compound?
**A.** The value was 101 POC.

**Q.** What about the “Avg POC” value (p38beta) of the same compound?
**A.** Its value is 102 POC.
